Laboratory results taken from patent US11299715B2, “Use of iNOS inhibitors to increase viral yield in culture” (priority 2013, dated 2022).

Experiments:
[1] = SABiosciences (QIAGEN) Jak-Stat RT-PCR Microarray in 293 cells; type: cell-based, human; conditions: listed as printed as NOS1, 240911_at
Method: 6×10e5 293 cells (from AGTC) were infected with wtHSV-1 McIntyre strain at MOI 1 in the presence of DMEM & 10% FBS with or without 50 uM ATA and 1-2 hours and diluted to 40% with DMEM & 10% FBS (final ATA concentration of 20 uM). Triplicate total RNA samples were harvested 24 hrs later using Qiagen RNeasy mini kit and DNase treated on the column and eluted. Eluate RNA triplicate samples were combined and photospectrometer O.D. readings were performed on the eluate at 260 and 280 nm to determine concentration. Sample RNA was converted into template cDNA using SABiosciences RT2 first strand kit. The cDNA was then used in the Human JAK/STAT Signaling Pathway PCR Array (PAHS-039A).

[2] = system: rHSV-1 d27-1 (d27-1) vector; experiment: ATA-HSV protocol: rHSV-1 d27-1 vector yield in V27 cell supernatants; type: cell-based, HSV-1; conditions: V27 cells, n=10, ATA 50 μM at Step 1, final 20 μM
NOS2 = iNOS = experiment: Affymetrix Gen Array, NOS2 expression in 293 cells; type: cell-based, human; conditions: AF049656
Method: Confluent 293 cells (2.4×10^6 cells in a 75 cm^2 flask) were cultured in DMEM+10% FCS for approximately 20 hrs and were then infected with one plaque forming unit per cell (PFU/cell) of HSV-1 MacIntyre Strain for 90 min. ATA at a concentration 20 μM (final) was added 90 min post-infection. The infected cells were harvested at 24 h after infection. Total RNA of sufficient quality and quantity was isolated from suspension using RNeasy Plus Mini Kit (QIAGEN, Valencia, Calif.) according to the manufacturer's instructions. Whole genome expression profiling was performed on Affymetrix Human U133 Plus 2.0 Array by the Asuragen, Inc. 3 μg total RNA was provided as input material.
Overall, RNA quality assessed on the bioanalyzer had RIN values of >9. Array hybridization and scaling factors were within passing quality control range. After scanning, raw expression CEL files were processed with Affymetrix Expression Console vs.1.1.2 (affymetrix.com). Each CEL file was processed with Robust Multichip Analysis (RMA) and a summarized table was exported as a text file. All downstream genomics and statistical analyses were done with JMP Genomics (version 5) (jmp.com/software/genomics). First, a filtering step was applied to filter-out low expression, specifically, those values below 6 in log^2 mode in at least 2 out of 8 samples. […]

SMILES: O=C(O)C1=CC(=C(c2ccc(O)c(C(=O)O)c2)c2ccc(O)c(C(=O)O)c2)C=CC1=O [ATA, 5-((3-carboxy-4-hydroxyphenyl)(3-carboxy-4-oxo-2,5-cyclohexadien-1-ylidene)methyl)-2-hydroxybenzoic acid]
- expression, ATA (Jak-Stat RT-PCR Microarray) ([1]; ATA alone): 1.02
- expression, HSV + ATA (Jak-Stat RT-PCR Microarray) ([1]; HSV + ATA, HSV alone 1.71): 1.5
- increase of d27-1 titer after ATA addition ([2]; 6-well plates, MOI 0.15): 6.1 times
- d27-1 titer after ATA addition ([2]; without ATA 5.4×10^7): 1.1×10^8 DRP/ml
- NOS2 expression, ATA (NOS2 = iNOS; ATA alone): −1.03
- NOS2 expression, HSV + ATA (NOS2 = iNOS; HSV + ATA, HSV alone 2.05): 1.72
